Measured values published in publication PMC4134510 (Journal of medicinal chemistry, 2010).

Tests used:
PDK1(h) = target: T1, PDK1(h) (Homo sapiens, UniProt O15530); assay: Kinase selectivity panel, enzymatic activity; assay type: biochemical; conditions: read-out: Enzymatic activity (% inhibition): PDK1(h)
T1 sequence (O15530 1-556): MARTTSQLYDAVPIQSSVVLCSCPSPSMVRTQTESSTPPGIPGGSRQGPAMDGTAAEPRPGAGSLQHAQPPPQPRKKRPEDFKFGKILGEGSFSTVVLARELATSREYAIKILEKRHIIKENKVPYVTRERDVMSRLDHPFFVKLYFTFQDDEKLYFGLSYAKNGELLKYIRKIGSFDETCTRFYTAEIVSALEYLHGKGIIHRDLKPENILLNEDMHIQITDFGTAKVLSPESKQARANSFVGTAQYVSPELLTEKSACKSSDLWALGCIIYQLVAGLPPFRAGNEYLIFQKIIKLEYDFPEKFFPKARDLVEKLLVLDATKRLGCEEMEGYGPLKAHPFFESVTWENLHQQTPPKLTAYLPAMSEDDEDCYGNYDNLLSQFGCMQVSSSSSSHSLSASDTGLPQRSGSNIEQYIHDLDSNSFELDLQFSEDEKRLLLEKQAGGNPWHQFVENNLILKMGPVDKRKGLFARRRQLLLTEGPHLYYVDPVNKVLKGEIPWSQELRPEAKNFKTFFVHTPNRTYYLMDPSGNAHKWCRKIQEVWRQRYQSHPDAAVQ

[1] = Pharmacokinetic properties on Balb/C mouse; conditions: in vivo, oral, 20 mg/kg
[2] = assay type: in vivo; conditions: mice, oral once daily

Compound: Cc1ccc(Nc2ncc3c(n2)N(C)C(=O)N(c2cc(NC(=O)c4cccc(C(F)(F)F)c4)ccc2C)C3)cn1 [GNF-7]
- inhibition at 10 µM (PDK1(h)): 0%
- AUC [1]: 26.7 µM·h
- body weight change ([2]; 10 mg/kg dosing group): only a very small weight change
- body weight loss ([2]; doses of 20 mg/kg and above): > 10%
